Our source for the AC50 values is PubChem BioAssay AID463206 (Broad Institute, 2010).

Active and inactive are the calls of the source.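 Rule for the calls: active = caspase luminescence falls with dose and the half-maximal concentration AC50 from the fitted curve is at or below a set limit; inconclusive = flat fit at 30 to 70% signal loss, or invalid fit; inactive = AC50 above the limit, or signal rises instead.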

The test system of the assay is INS-1E cytokine-induced caspase-3/7, Caspase-Glo luminescence, 48 h. In words: inhibitors of cytokine-induced caspase-3/7 activity, dose response, orthogonal assay for beta-cell apoptosis protection project, INS-1E rat cells, luminescence (AID 463206).
In general, AC50 refers to the midpoint of the concentration-response curve, whichever way the signal moves. For the compound `c1ccc(CN2CCN(Cc3c[nH]c4ccccc34)CC2)cc1`, the AC50 is > 26 µM (inactive).
As for `O=C(NCCCn1ccnc1)c1ccc(N2CCCCCC2)c([N+](=O)[O-])c1`, the figure is > 26 µM (inactive); as for `CN(C)CCCNc1cc(C(C)(C)C)nc2c(-c3ccccc3)cnn12`, > 26 µM (inactive).
On to `O=C(NNC(=O)c1ccccc1OCc1ccccc1)c1ccccc1O`, for which the AC50 is > 26 µM (inactive).
As for `O=C(Nc1ccc(-c2csc(Nc3cccc(C(F)(F)F)c3)n2)cc1)c1cc([N+](=O)[O-])cc(C(F)(F)F)c1`, the AC50 was > 26 µM (inactive).
The figure for `CCCCC(=O)NC(c1ccccc1)c1ccc2cccnc2c1O` (centres undefined) is > 26 µM (inactive); for `CCCCCCCCCC[N+](C)(C)CC/C=C1/c2ccccc2Sc2ccc(Cl)cc21` it is > 26 µM (inactive); for `CCN(CC)c1ccc(/C=N/NC(=O)Cc2cccs2)c(O)c1` it is > 26 µM (inactive).
As for `Cc1ccc(S(=O)(=O)/N=C2/C=C(Sc3ncn[nH]3)C(=O)c3ccccc32)cc1`, the figure is > 26 µM (inactive); as for `O=C(N/N=C\c1cc(Br)ccc1O)c1ccc(S(=O)(=O)N2CCCCC2)cc1`, > 26 µM (inactive).
The figure for `Cc1cccc(-n2c(C)cc(/C=N/n3cnnc3)c2C)c1` is > 26 µM (inactive).
Consider `Cc1ccc(NC(=S)N/N=C/c2ccc([N+](=O)[O-])s2)cc1`, for which the AC50 was > 26 µM (inactive).
The figure for `FC(F)(F)c1ccccc1NC(=S)N1CCN(Cc2ccc3c(c2)OCO3)CC1` is > 26 µM (inactive); for `O=[N+]([O-])c1ccc(-c2nc(C(Cl)Cl)c3ccccc3n2)cc1` it is 0.62 µM.
Turning to `O=C(N/N=C(\c1ccccc1)c1cccnc1)c1cccc(F)c1`, the AC50 is > 26 µM (inactive).
As for `CC(Nc1ncnc2ccccc12)c1ccccc1` (centres undefined), the figure is > 26 µM (inactive).
The figure for `CN(C)CCCNc1c2ccccc2nc2ccccc12` is > 26 µM (inactive); for `Cc1cccnc1Nc1nc(-c2ccccn2)cs1` it is > 26 µM (inactive); for `CCC(CC)C(=O)c1c[nH]c(C(=O)NCc2ccccn2)c1` it is > 26 µM (inactive).
In the case of `CC(=O)N(C)C1=C(N2CCOCC2)C(=O)c2ccccc2C1=O`, the AC50 is > 26 µM (inactive).
Take `C/C(=N\NC(=O)C(C)Oc1ccc([N+](=O)[O-])cc1)c1ccccn1` (centres undefined): the AC50 is > 26 µM (inactive).
The figure for `COC(=O)C[C@]1(C(=O)OC)CN(C#N)N(c2ccc(Cl)cc2)C12c1ccccc1-c1ccccc12` is > 26 µM (inactive); for `CCN(Cc1ccccc1)C(c1ccc(C(F)(F)F)cc1)c1nnnn1C(C)(C)C` (centres undefined) it is > 26 µM (inactive).
As for `Oc1ccc(N=Nc2ccccc2C(F)(F)F)c2cccnc12`, the figure is > 26 µM (inactive); as for `Cc1ccc(NC2=C(N3CCCCC3)C(=O)c3ccccc3C2=O)cc1`, > 26 µM (inactive); as for `CCC(C)c1ccc(NC(=S)NC2CCN(Cc3ccccc3)CC2)cc1` (centres undefined), > 26 µM (inactive).
The figure for `CC(C)(C)c1nnc(N/N=C/c2cc(Br)ccc2O)n(N)c1=O` is > 26 µM (inactive); for `Oc1c(C(c2ccccc2Cl)N2CCCC2)ccc2cccnc12` (centres undefined) it is > 26 µM (inactive); for `CN1C2CCC1/C(=C/c1ccccn1)C(=O)/C2=C\c1ccccn1` it is > 26 µM (inactive).
Consider `CCCCCCSc1cc(-c2nc3ccc(C)cn3c2NCc2ccccc2)ccc1OC`, for which the AC50 is > 26 µM (inactive).
As for `CCN(CC)CCC(=O)Nc1cccc2c1C(=O)c1ccccc1C2=O`, the figure is 2.26 µM.
With `Cc1cc(C)c2sc(NNC(=O)c3ccc(S(=O)(=O)N4CCc5ccccc5C4)cc3)nc2c1`, the AC50 is > 26 µM (inactive).
As for `CC(=O)NC(c1cccs1)c1cc([N+](=O)[O-])c2cccnc2c1O` (centres undefined), the figure is > 26 µM (inactive); as for `O=C(NNC(=O)c1ccccc1OCc1ccc(F)cc1)c1ccccc1O`, > 26 µM (inactive).
